Entries after “also recorded” stand apart in the source; their conditions may differ.

We go through 3 molecules from US5312928A, “Calcium channel antagonists and methodology for their identification” (priority 1991, dated 1994).

Series [1] has as its system DHP-resistant R-channels (N1E-115 cells). It counts as cell-based, murine.
Series [2] has as its system Na current, N1E-115 cells. Type of series: cell-based, murine.
The test system of series [3] is T-type calcium channels (N1E-115 cells). It counts as cell-based, murine.
Series [4] concerns K currents, N1E-115 cells. Type of series: cell-based, murine. As to conditions: @ 1 U/ml.
Series [5] deals with dihydropyridine binding sites on the L-type calcium channels. As to conditions: up to 0.6 units/ml; rat brain membranes. The source says:
Other compounds which act through the same binding site as the dihydropyridines will inhibit this [^3 H]nimodipine binding.

For series [6], the system named is L-type calcium channels (GH4 C1 cells). Nature of the series: Whole-cell voltage-clamp electrophysiology, GH4 C1 cells. It counts as cell-based, rat.
The test system is the same in series [7]. Kind of series: Microscreen assay: K+-stimulated 45Ca uptake by GH4C1 clonal pituitary cells. It counts as cell-based, rat.
Procedure: Frozen crude venom (40 μl) was thawed on ice and mixed with 210 μl of ice-cold 0.1% trifluoroacetic acid (TFA) in H2 O. The solution was centrifuged at room temperature for 5 min. at 13,000 rpm with an Eppendorf Centrifuge, and 240 μl of the supernatant was applied to a reversed-phase C18 HPLC column (100×250 mm, 5 μm bead size, 100 Å pore size, prepacked NGA column from The NEST Group). HPLC was performed using an acetonitrile gradient of 0 to 30% in 0.1% TFA in 105 min. at a flow rate of 4.0 ml/min. The elution was monitored by absorbance at 214 nm and 254 nm, and the fractions were collected manually according to the elution profile. Samples representing 5% of each fraction (corresponding to 2 μl crude venom per sample) were dried by Speed Vac (Savant), suspended in a buffer, and tested for their ability to block ^45 Ca^+ 2 influx into rat GH4C1 cells (see "Microscreen Assay for L-Type Calcium Channel Blockers" below).
Microscreen Assay for L-Type Calcium Channel Blockers
The rat GH4 C1 pituitary cells, a widely available cell line obtained from Dr. Armen Tashjian, Harvard Medical School, was used to measure effect of DOC preparations on calcium influx into cells.
Cell stocks were kept frozen in liquid nitrogen until needed. One ampule was thawed and then seeded onto a T-75 culture flask and grown to confluency. Thereafter, the cells were treated with a 1% trypsin solution in Hanks and replated onto T-25 culture flasks at different dilutions. Stocks were then kept growing and split as needed rather than refrozen. The medium used was Ham's F-10 supplied by Media-Tech containing 10% heat-inactivated fetal calf serum purchased from Hyclone. In general, the best response was obtained from 3-5 day post-confluent cells.
Cell suspension from one T-25 flask was prepared as follows for experiments. The flask was gently washed 2× with Hanks. 10 ml of warm 0.02% EDTA-Hanks was added to the flask and allowed to stand for approximately 30 seconds. The plate was sloshed, inverted and banged on a hard surface to dislodge the cells. 0.6 ml CMT-Hanks was immediately added and sloshed. The cells were then transferred to a 15 ml centrifuge tube and spun for 20-30 seconds at 50 g (700 RPM).
With a pipette, the supernatant was gently aspirated and resuspended by triturating the pellet in 0.4 ml HBBS. The cells were then transferred to a 4 ml flat bottom glass vial with a magnetic flea and stirred at the slowest speed.
Thereafter, low K^+ or high K^+ 4.2 μl ^45 Ca stock [eq. to 2 uCi/4.2 μl cells] was added to the tube and incubation was continued for 1 min. 790 μl HBBS was added to quench calcium uptake by the cells. The mixture was then pipetted up and down 2× before it was subjected to filtration in an Amicon filter manifold with a Whatman glass fiber filter. The filter was rinsed 5× with 5 ml HBBS buffer each. It is important that the buffer be squirted at the side of the chimney, straight down and not directly at the filter, since this may wash cells back up off the filter and onto the chimney. It is also important not to cause a whirlpool effect with the wash and create uneven rinsing of the filter.
A separate chimney for each well was used and each chimney was washed after use.
About 1 min. after the rinse, the chimney was removed to relieve the filter of suction to minimize loss of counts due to cell disruption. A set of four blanks (i.e., measurements using the same solutions but without cells) was run at the end of the assay to determine the background counts.
In series [8] the test system is synaptosomal calcium channels. Kind of series: Microscreen assay: K+-stimulated 45Ca uptake by synaptosomes. It counts as biochemical, rat. As for the experimental part: The screening method used to test calcium blocking activity in GH4 C1 cells of venom preparations, as described above, was modified as follows for determining the effect of DOC1 on synaptosomal calcium uptake.
After the buffers were made, the osmolarity of the quench buffer was adjusted by dilution with ddH2 O to approximately equal to the average of the osmolarities of the other 3 buffers. All the buffers were made up in ddH^2 O only.
For basal uptake: 5 μl NEN stock+995 μl low K+Ca buffer.
For depolarized (i.e., high K^+) uptake: 5 μl NEN+995 μl high K+Ca buffer.
The synaptosome preparation described below was an adoption of a published procedure. [Hajos F., Brain Res. 93:485-489 (1975)].
Basal buffer used was of the following composition: Basal buffer, pH 7.4, was of following composition: NaCl 147 mM, KCl 3 mM, HEPES 10 mM, Dextrose 10 mM, MgCl2 1.2 mM, and EGTA-Tris 1 mM. The high-K^+ buffer was the same as the basal buffer except that concentrations of NaCl and KCl were 95 mM and 55 mM, respectively.
Synaptosomes were prepared from CD male rats of 4 to 6 weeks (50-75 g). Rats were killed by decapitation with guillotine, and the skull bone was opened in the center with the pointed blade of dissection scissors. The bone was then peeled away with a bone cutter and the brain pried with a micro spatula. […]

Series [9] has as its system L-channels? (cortical neurons). Nature of the series: Block of K-stimulated 45Ca uptake, cortical neurons. It counts as cell-based. The text has this: Summarized in the Table below are results of experiments designed to study the effect of DOC1 on calcium channels by calcium 45 uptake measurement and electrophysiological method, both of which are described above.
Series [10] deals with L-type channels. As to conditions: characteristic of dihydropyridines, background; read-out: IC50 for L-channel block; cited from earlier work.
Series [11] concerns stroke. As to conditions: cited from earlier work.

As for `NCCCNCCCNCCCNCCCCCNC(=O)Cc1c[nH]c2cccc(O)c12` [DOC1], the “Block of DHP-resistant R-channels, N1E-115 cells (electrophys), IC50” value in series [1] came out at 0.4 units/ml. For the same molecule, the “concentration yielding half-maximal inhibition of high-threshold current remaining after nimodipine” value in series [1] (10 μM nimodipine, maximum block 45%, FIG. 12) was determined as 0.37 U/ml. Moreover, in series [1] (1.0 U/ml DOC1, 10 μM nimodipine, FIG. 11A, 11B), the “inhibition of high-threshold current in continuous presence of nimodipine (in words)” value is listed as “inhibition of the high-threshold current; also recorded: blocks high-threshold current”. Moreover, the “reversibility and dose-dependence of the actions” value in series [1] (upon washout) was “reversible upon washout and were dose-dependent”. Moreover, the “specificity for Ca channels over Na or K channels (in words)” value in series [2] (Na or K channels, N1E-115 cells) is reported as “striking specificity”. In series [2] (on the order of), the “selectivity for Ca versus Na currents” value is given as “two”. Further, in series [2] (words in the IC50 column), the “Block of Na current, N1E-115 cells, IC50” value was “not signif”. The “effect on T-type current (in words)” value in series [3] (evoked by weak depolarizations from negative holding potentials, FIG. 11C) is reported as “did not substantially affect the T-type current; also recorded: no block of putative T-type channels was observed; also recorded: little effect on T-type current”. In series [3] (words in the IC50 column), the “Block of low threshold, inactivating (T?) channels, N1E-115 cells (electrophysiol), IC50” value was “none”. Moreover, the “Block of K currents, N1E-115 cells” value in series [4] was determined as 12%. Also, the “inhibition of [3H]nimodipine binding (in words)” value in series [5] is recorded as “no significant inhibition; also recorded: no inhibition of nimodipine binding”. Further, in [6] (0.4-1.0 U/ml, depolarizations to between -10 and +20 mV), the “block of current through calcium channels, GH4 C1 cells” value is on record as “up to 80%”. Moreover, in series [6] (FIG. 10), the “reversibility of block of calcium channel current, GH4 C1 cells” value is recorded as “reversibly blocked; also recorded: capable of reversibly blocking electrical current”. Besides, the “Block of DHP-sensitive L-type channels, GH4 C1 clonal pituitary cells, electrophysiol, IC50” value in series [6] (puff application) is 1.5 units/ml. The “relative potency DOC1 vs DOC3 in blocking calcium uptake” value in series [7] (FIG. 6, DOC1 compared with DOC3) is “several-fold more potent than DOC3”. The “activity in the 45Ca2+ influx assay / block of potassium-stimulated calcium uptake (in words)” value in series [7] (GH4 C1 clonal pituitary cells) is recorded as “blocked potassium-stimulated calcium uptake; also recorded: active; also recorded: possess calcium blocking activity”. Besides, the “Block of DHP-sensitive L-type channels, GH4 C1 clonal pituitary cells, 45Ca uptake, IC50” value in [7] (consistent inhibitory effects, IC50 varied among GH4 C1 cultures) is on record as 0.4-1.5 units/ml. Moreover, the “inhibition of K+-stimulated calcium uptake by synaptosomes” value in series [8] (concentrations up to 0.5 units/ml, not more than about 30%) is given as at most 30%. Moreover, the “block of synaptosomal calcium channels (in words)” value in [8] (in comparison with block of L-type channels in GH4 C1 cells) is “substantially less effective and potent”. For the same molecule, in [9] (IC50 varied among sensitive cultures), the “Block of K-stimulated 45Ca uptake (L-channels?), cortical neurons, IC50” value is 0.1-0.4 units/ml. For the same molecule, in series [9] (some cultures of cortical neurons), the “sensitivity of cortical neuron cultures (in words)” value is reported as “insensitive”.
Take `COC(=O)C1=C(C)NC(C)=C(C(=O)OC)C1c1ccccc1[N+](=O)[O-]` [nifedipine]: the 50% inhibitory concentration (IC50) (as a rule, the concentration at which inhibition is half-maximal) in series [10] is under 1000 nM.
Consider `COCCOC(=O)C1=C(C)NC(C)=C(C(=O)OC(C)C)C1c1cccc([N+](=O)[O-])c1` (stereo not shown) [nimodipine], for which the cardiovascular side effects entry in [11] (background statement) is on record as “significant cardiovascular side effects”. Further, the “improvement in the outcome of stroke in clinical trials” value in [11] (clinical trials, Gelmers et al. 1988) was “Modest improvement in the outcome of stroke”. Moreover, the IC50 in [10] was under 1000 nM.
